Test results taken from PMC6669558, “Bioactive Compounds Isolated from Marine Bacterium Vibrio neocaledonicus and Their Enzyme Inhibitory Activities” (Marine Drugs, 2019).
Values joined by “and” are separate entries in the source; they are usually repeats but may differ in a detail not shown here. Identical values can stand only once. Marks after values point to notes of the source that are not given here.

Tests used:
[1] = target: T1, Acetylcholinesterase from Electrophorus electricus (Electrophorus electricus, UniProt O42275); assay: Acetylcholinesterase inhibition assay (Ellman, ATCI substrate); format: biochemical
T1 construct: purchased Sigma Aldrich (Shanghai, China)
Description: (§1) Acetylcholinesterase from Electrophorus electricus, alphaglucosidase from Saccharomyces cerevisiae, and xanthine oxidase from bovine milk were obtained from Sigma Aldrich (Shanghai, China). The other reagents used in the bioassays were purchased either from Solarbio or Sigma Aldrich. Analytical reagent grade organic solvents for extraction were purchased from XL Xilong Scientific Chemical. Silica gel plates (Silica gel 60 F254 0.2 mm layer thickness) were purchased from Merck (KGaA, Darmstadt, Germany). A spectrometer (Thermo Scientific Multiskan GO, Vantaa, Finland) was used for all measurements of AChE, AG and XO inhibitory activities. The venom was extracted and collected manually from the adult specimens of B. asper snakes from Colombia (South America) that were held captive in the Serpentarium at University of Antioquia. The venom was centrifuged, and the supernatant was lyophilized and frozen at −70 °C until its use.
AChE inhibition was determined according to the method of Ellman with ATCI as substrate. […] The control contained all components except the tested extract. The inhibitory rate was calculated as the formula: %I = [1 − (ODs−OD sample sb)/ODn-ODnb] × 100%; where: ODn is the absorbance value of the sample system in which sample is substituted by PBS, ODnb is the absorbance value of ODn in which no AChE was added, ODsb is the absorbance of ODs in which no AchE was added.

[2] = target: T2, alphaglucosidase from Saccharomyces cerevisiae (Saccharomyces cerevisiae, UniProt P53341); assay: Alphaglucosidase inhibition assay (pNPG); format: biochemical; settings: for inhibitory activity for the enzyme AG (in words): at any of the tested doses (3.125-50 µg/mL)
T2 construct: purchased Sigma Aldrich (Shanghai, China)
Description: as §1
The AG inhibition activity was evaluated by measuring the release of p-nitrophenol from p nitrophenyl-α-D-glucopyranoside (pNPG) following the protocol proposed by Pistia-Brueggemann, with modifications. […] The control (C-) contained all the reagents but the sample was substituted by PBS. […] The inhibitory rate was calculated as the formula: %I = [1 − (ODs − OD sample sb)/ODn-ODnb] × 100%; where: ODn is the absorbance value of the sample system in which sample is substituted by PBS, ODnb is the absorbance value of ODn in which no AG was added, ODsb is the absorbance of ODs in which no AG was added.

[3] = target: T3, xanthine oxidase from bovine milk (Bos taurus, UniProt P80457); assay: Xanthine oxidase inhibition assay; format: biochemical
T3 construct: purchased Sigma Aldrich (Shanghai, China); host or cells: bovine milk
Description: as §1
The assay was based on the developed method of Valentao [56] and modified for application in microplates by Lopez-Cruz. All test samples were dissolved in a 50 mM phosphate buffer to simulate the environment in which the reaction occurs in the body. […] The control contained all components except the sample. The inhibitory rate was calculated as the formula: %I = [1 − (ODs − OD sample sb)/ODn-ODnb] × 100%; where: ODn is the absorbance value of the sample system in which sample is substituted by PBS, ODnb is the absorbance value of ODn in which no XO was added, ODsb is the absorbance of ODs in which no XO was added.

B. asper venom [4] = assay: Inhibition of proteolytic activity of venom on azocasein; format: biochemical, Bothrops asper; settings: 3 µg venom per well
Description: as §1
The proteolytic activity was measured on azocasein (Sigma Aldrich, St. Lous, MO, USA) according to Wang with some modifications. […] The supernatant (100 μL) was mixed with an equal volume of 0.5 M NaOH, and the absorbance was measured at 450 nm. Results are shown as percentage of activity (absorbance at 450 nm). […]

[5] = test system: Metalloproteinase (Batx-I); assay: Inhibition of proteolytic activity of isolated metalloproteinase on azocasein; format: biochemical, Bothrops atrox; settings: 3 µg toxin per well
Procedure: (§2) Batx-I was isolated from Bothrops atrox according to the protocol of Patiño. Purification was done by ion-exchange chromatography (CM Sephadex C25) and the toxin purity was tested by RP-HPLC and SDS PAGE. PLA2 was isolated from Crotalus durissus cumanensis according to the protocol of Pereañez. PLA2 was purified by RP-HPLC on C-18 column eluted at 1.0 mL/min with a gradient from 0% to 100% acetonitrile in 0.1% trifluoroacetic acid (v/v). Absorbance was monitored at 215 nm. Batx-I and Cdcum6 were lyophilized and stored at −20 °C until their use.
The proteolytic activity was measured on azocasein (Sigma Aldrich, St. Lous, MO, USA) according to Wang with some modifications. Briefly, 3 µg of B. asper venom or Batx-I were dissolved in 5 μL of 25 mM Tris (0.15 M NaCl, 5 mM CaCl2), pH 7.4, and were mixed with different doses of indole in order to obtain 1:20, 1:10 and 1:5 w/w ratios, respectively. Mixes were pre-incubated for 30 min at 37 °C. Later, these solutions were incubated with 10 mg/mL of azocasein diluted in the same buffer. After an incubation of 90 min at 37 °C, the reaction was stopped by the addition of 200 μL of trichloroacetic acid. The samples were then centrifuged at 3000 rpm for 5 min. The supernatant (100 μL) was mixed with an equal volume of 0.5 M NaOH, and the absorbance was measured at 450 nm. Results are shown as percentage of activity (absorbance at 450 nm). […]

B. asper venom [6] = assay: Inhibition of coagulant activity of venom (plasma clotting time); format: biochemical, Bothrops asper
Procedure: The method described by Theakston and Reid was followed, with small modifications. Briefly, 1.0 µg of B. asper dissolved in 25 µL PBS were mixed with 75 µL of different concentrations of indole, and pre-incubated for 30 min at 37 °C. After, 100 µL of mixtures were added to 0.2 mL of plasma, and the time required for plasma coagulation was determined.

[7] = test system: Phospholipase A2 (Cdcum6); assay: Inhibition of PLA2 activity with 4N3OBA substrate; format: biochemical, Crotalus durissus cumanensis
Procedure: as §2
The inhibitory effect of indole on the PLA2 of snake venom was assessed by two methods; the first of them, using monodispersed substrate 4N3OBA (manufactured by BIOMOL, Hamburg Germany) according to the method described by Holzer and Mackessy and adapted for a 96-well ELISA plate. […] The inhibitory effect of indole on PLA2 activity was determined through pre-incubation of the enzyme with each concentration of the compound for 30 min at 37 °C. After the incubation period, the sample was added to the assay and the reaction was monitored at 425 nm for 40 min at 37 °C. The quantity of chromophore released (4-nitro-3-hydroxy benzoic acid) was proportional to the enzymatic activity. […]

B. asper venom [8] = assay: Inhibition of indirect hemolytic activity (agarose-erythrocyte-egg yolk gels); format: biochemical, Bothrops asper; settings: at tested doses
Procedure: The second method to evaluate the inhibitory effect of indole on PLA2, was determining the inhibition of the indirect hemolytic activity. This was evaluated in agarose-erythrocyte-egg yolk gels according to Gutierrez. It used a minimum indirect hemolytic dose (MIHD) of B. asper venom of 2.2 μg, defined as the amount of venom that induced a 20 mm diameter hemolytic halo. Venom and different doses of indole were preincubated for 30 min at 37 °C and the inhibitory potential was measured after 20 h of plate incubation at 37 °C. This experiment was done in triplicate.

[9] = dose 50 µg/mL, listed as indole

T3 sequence (P80457 whole entry): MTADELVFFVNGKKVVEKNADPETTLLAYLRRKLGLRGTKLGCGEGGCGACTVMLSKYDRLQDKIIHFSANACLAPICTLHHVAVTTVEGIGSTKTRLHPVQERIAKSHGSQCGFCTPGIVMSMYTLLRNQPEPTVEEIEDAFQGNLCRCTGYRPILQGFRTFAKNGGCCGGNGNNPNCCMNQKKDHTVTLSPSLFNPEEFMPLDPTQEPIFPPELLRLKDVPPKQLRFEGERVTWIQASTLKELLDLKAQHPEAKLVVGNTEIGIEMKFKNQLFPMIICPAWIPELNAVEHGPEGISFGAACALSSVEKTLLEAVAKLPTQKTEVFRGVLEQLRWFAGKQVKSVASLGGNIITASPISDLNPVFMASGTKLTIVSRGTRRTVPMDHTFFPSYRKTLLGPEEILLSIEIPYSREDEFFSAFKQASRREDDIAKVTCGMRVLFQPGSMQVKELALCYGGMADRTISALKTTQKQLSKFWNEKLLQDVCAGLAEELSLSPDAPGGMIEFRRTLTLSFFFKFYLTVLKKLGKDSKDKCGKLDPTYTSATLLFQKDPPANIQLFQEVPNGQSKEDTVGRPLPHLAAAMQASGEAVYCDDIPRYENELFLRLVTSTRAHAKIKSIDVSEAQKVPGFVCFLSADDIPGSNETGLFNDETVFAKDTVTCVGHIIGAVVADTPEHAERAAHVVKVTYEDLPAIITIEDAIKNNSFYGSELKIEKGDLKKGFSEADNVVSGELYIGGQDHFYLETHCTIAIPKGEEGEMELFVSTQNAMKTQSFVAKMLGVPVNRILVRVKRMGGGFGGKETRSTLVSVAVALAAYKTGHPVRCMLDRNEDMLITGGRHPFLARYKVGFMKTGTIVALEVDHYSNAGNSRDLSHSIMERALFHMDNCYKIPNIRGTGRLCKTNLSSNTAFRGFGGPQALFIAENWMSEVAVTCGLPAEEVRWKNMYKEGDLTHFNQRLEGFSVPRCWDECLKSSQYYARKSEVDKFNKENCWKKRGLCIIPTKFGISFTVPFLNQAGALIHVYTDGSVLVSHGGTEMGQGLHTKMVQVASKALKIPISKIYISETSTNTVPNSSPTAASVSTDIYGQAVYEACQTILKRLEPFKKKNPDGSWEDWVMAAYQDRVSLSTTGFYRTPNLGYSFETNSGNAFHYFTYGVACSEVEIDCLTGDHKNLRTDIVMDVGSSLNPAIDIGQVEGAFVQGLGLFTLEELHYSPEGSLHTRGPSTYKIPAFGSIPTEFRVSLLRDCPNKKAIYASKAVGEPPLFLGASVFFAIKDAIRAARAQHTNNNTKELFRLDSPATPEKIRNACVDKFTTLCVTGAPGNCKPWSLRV
T2 sequence (P53341 whole entry): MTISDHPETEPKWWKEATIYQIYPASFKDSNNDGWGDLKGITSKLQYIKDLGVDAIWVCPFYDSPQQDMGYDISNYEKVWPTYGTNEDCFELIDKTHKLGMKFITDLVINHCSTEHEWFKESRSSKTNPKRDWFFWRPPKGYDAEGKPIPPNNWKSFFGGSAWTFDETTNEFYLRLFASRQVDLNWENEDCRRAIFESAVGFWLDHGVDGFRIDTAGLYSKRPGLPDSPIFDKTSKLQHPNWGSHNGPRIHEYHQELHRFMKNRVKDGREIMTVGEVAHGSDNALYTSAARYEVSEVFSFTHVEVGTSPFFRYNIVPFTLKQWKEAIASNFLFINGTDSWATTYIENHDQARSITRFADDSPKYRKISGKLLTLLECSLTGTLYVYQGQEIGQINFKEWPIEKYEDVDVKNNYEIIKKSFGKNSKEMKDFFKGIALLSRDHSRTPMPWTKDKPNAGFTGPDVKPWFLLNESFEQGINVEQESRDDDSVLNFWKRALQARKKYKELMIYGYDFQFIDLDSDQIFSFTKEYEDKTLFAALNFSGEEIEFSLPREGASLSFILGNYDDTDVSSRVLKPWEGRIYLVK
T1 sequence (O42275 24-633): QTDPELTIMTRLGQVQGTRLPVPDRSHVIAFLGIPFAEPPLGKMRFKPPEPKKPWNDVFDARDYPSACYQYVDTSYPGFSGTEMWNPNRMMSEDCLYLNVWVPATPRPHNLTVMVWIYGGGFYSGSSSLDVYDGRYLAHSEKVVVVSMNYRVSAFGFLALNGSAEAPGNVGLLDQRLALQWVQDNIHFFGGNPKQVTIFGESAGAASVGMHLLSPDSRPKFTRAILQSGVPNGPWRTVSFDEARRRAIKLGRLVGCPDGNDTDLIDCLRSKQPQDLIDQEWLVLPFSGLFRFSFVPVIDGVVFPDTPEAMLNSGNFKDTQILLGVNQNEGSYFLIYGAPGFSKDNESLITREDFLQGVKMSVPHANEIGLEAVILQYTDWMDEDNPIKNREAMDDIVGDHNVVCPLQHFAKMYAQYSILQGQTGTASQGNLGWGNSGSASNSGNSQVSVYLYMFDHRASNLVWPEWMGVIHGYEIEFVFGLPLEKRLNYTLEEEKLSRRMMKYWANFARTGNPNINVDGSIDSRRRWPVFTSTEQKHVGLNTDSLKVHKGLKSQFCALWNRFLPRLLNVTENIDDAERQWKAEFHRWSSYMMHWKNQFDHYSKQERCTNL

SMILES	IC50 [1] [µM]	AChEI% ([1]; dose 3.125 µg/mL) [%]	AChEI% ([1]; dose 6.25 µg/mL) [%]	AChEI% ([1]; dose 25 µg/mL) [%]	AChEI% ([1]; dose 50 µg/mL)	inhibitory activity for the enzyme AG (in words) [2]	AGI% ([2]; dose 3.125 µg/mL) [%]	AGI% ([2]; dose 6.25 µg/mL) [%]	AGI% ([2]; dose 25 µg/mL) [%]	AGI% ([2]; dose 50 µg/mL)	IC50 [3] [µM]	XOI% ([3]; dose 3.125 µg/mL)	XOI% ([3]; dose 6.25 µg/mL)	XOI% ([3]; dose 25 µg/mL)	XOI% ([3]; dose 50 µg/mL)	further results
O=Cc1ccc(O)cc1 [4-hydroxybenzaldehyde]	6890 ± 118	0	4.21 ± 0.01	14.26 ± 0.011	25.7% and 25.7 ± 0.56%	no inhibitory activity	0	0	0	0%	506 ± 16	17.39 ± 0.49%	25.27 ± 0.19%	31.67 ± 0.52%	50.75% and 50.75 ± 0.50%	
c1ccc2[nH]ccc2c1 [Indole, indole]	335 ± 13.1	0	9.42 ± 0.07	37.54 ± 1.26	51.3 ± 1.67 %		51.43 ± 1.06	81.49 ± 1.17	94.4 ± 1.01	100 *** %	843 ± 16.7	15.01 ± 0.31%	17.77 ± 0.52%	25.17 ± 0.65%	44.30 ± 1.14%	AChEI% [1, 9]: 51.3%; AGI% ([2]; dose 3.125 µg/mL, listed as indole): 51.43%; AGI% ([2]; dose 6.25 µg/mL, listed as indole): 81.49%; AGI% ([2]; dose 25 µg/mL, listed as indole): 94.4%; IC50 ([2]; read-out: AG (IC50 µM)): 18.7 ± 1.1 µM; XOI% [3, 9]: 44.3%; proteolytic activity inhibition of B. asper venom (in words) (B. asper venom [4]; venom:compound ratio 1:10): weak inhibition without significance; proteolytic activity inhibition of B. asper venom (B. asper venom [4]; venom:compound ratio 1:20 w/w): 77.9% ± 5.5; inhibition of proteolytic activity of metalloprotease ([5]; toxin:compound ratio 1:5, not significant): 4.31 ± 1.9; inhibition of proteolytic activity of metalloprotease ([5]; toxin:compound ratio 1:10): 13.54 ± 2.5; coagulant activity of the compound by itself (in words) (B. asper venom [6]; compound alone, after half an hour of incubation): did not generate coagulant activity; inhibition of the coagulating effect in vitro (in words) (B. asper venom [6]; induced by 1.0 µg of venom): significant in vitro inhibition; maximum delay time for clotting onset (clotting time) (B. asper venom [6]; venom:compound ratio 1:20 w/w, 1.0 µg venom, venom alone 21.6 ± 0.8 s): 99 ± 4.0 s; inhibition of PLA2 activity (given as proteolytic activity inhibition) ([7]; toxin:compound ratio 1:10): 10.0%; inhibition of PLA2 activity (given as proteolytic activity inhibition) ([7]; toxin:compound ratio 1:20): 15.20%; inhibition of the indirect hemolytic activity of the complete venom (in words) (B. asper venom [8]): did not show inhibition
O=Cc1c[nH]c2ccccc12 [1H-indole-3-carboxaldehyde]		0	0	0	0%	no inhibitory activity	0	0	0	0%	13.4 ± 0.39	61.14% and 61.14 ± 0.14 %	67.69% and 67.69 ± 0.34 %	86.49% and 86.49 ± 0.89 %	100% and 100 *** %	
